Assay results published in US12358892B2, “Metalloenzyme inhibitors for treating cancers, Alzheimer's disease, hemochromatosis, and other disorders” (Miralogx LLC, priority 2020, dated 2025).
“Also recorded” adds a separate entry of the source.

Tests used:
B cells = assay: BioMAP proliferation readout, B cells; type: cell-based, human; conditions: 670 μM, 220 μM, 74 μM; concentrations not associated with cytotoxicity
Text: (§1) The X-axis lists the quantitative protein-based biomarker readouts measured in each system. The Y-axis represents a log-transformed ratio of the biomarker readouts for the drug-treated sample (n=1) over vehicle controls (n≥6). The grey region around the Y-axis represents the 95% significance envelope generated from historical vehicle controls. Biomarker activities are annotated when two or more consecutive concentrations change in the same direction relative to vehicle controls, are outside of the significance envelope, and have at least one concentration with an effect size >20% (|log 10 ratio|>0.1). Biomarker key activities are described as modulated if these activities increase in some systems, but decrease in others. […] As summarized in Table 2 below, the compound was active with 35 annotated readouts. […]
(§2) Human primary cells in BioMAP® systems are used at early passage (passage 4 or earlier) to minimize adaptation to cell culture conditions and preserve physiological signaling responses. […] Test agents prepared in either DMSO (small molecules; final concentration ≤0.1%) or PBS (biologics) are added at the indicated concentrations 1-hr before stimulation, and remain in culture for 24-hrs or as otherwise indicated (48-hrs, MyoF system; 72-hrs, BT system (soluble readouts); 168-hrs, BT system (secreted IgG)). […]

[1] = test system: coronary artery smooth muscle cells; assay: BioMAP proliferation readout, coronary artery smooth muscle cells; type: cell-based, human; conditions: 670 μM, 220 μM, 74 μM; concentrations not associated with cytotoxicity
Text: as §1, §2

[2] = test system: human primary endothelial cells; assay: BioMAP proliferation readout, endothelial cells; type: cell-based; conditions: 670 μM, 220 μM, 74 μM; concentrations not associated with cytotoxicity
Text: as §1, §2

T cells = assay: BioMAP proliferation readout, T cells; type: cell-based, human; conditions: 670 μM, 220 μM; concentrations not associated with cytotoxicity
Text: as §1, §2

fibroblasts = assay: BioMAP proliferation readout, fibroblasts; type: cell-based, human; conditions: 670 μM; concentrations not associated with cytotoxicity
Text: as §1, §2

[3] = test system: 12 human primary cell-based systems; assay: BioMAP Diversity PLUS panel, protein biomarker readouts and cytotoxicity
Text: This example describes testing the compound prepared in Example 1 in the BioMAP Diversity PLUS (Eurofins Discovery, Burlingame, California) panel of 12 human primary cell-based systems designed to model different aspects of the human body in an in vitro format. The 12 systems in the Diversity PLUS panel allow test agent characterization in an unbiased way across a broad set of systems modeling various human disease states. BioMAP systems are constructed with one or more primary cell types from healthy human donors, with stimuli (such as cytokines or growth factors) added to capture relevant signaling networks that naturally occur in human tissue or pathological conditions. Vascular biology is modeled in both a Th1 (3C system) and a Th2 (4H system) inflammatory environment, as well as in a Th1 inflammatory state specific to arterial smooth muscle cells (CASM3C system). Additional systems recapitulate aspects of the systemic immune response including monocyte-driven Th1 inflammation (LPS system) or T cell stimulation (SAg system), chronic Th1 inflammation driven by macrophage activation (lMphg system) and the T cell-dependent activation of B cells that occurs in germinal centers (BT system). The BE3C system (Th1) and the BF4T system (Th2) represent airway inflammation of the lung, while the MyoF system models myofibroblast-lung tissue remodeling. Lastly, skin biology is addressed in the KF3CT system modeling Th1 cutaneous inflammation and the HDF3CGF system modeling wound healing.
The X-axis lists the quantitative protein-based biomarker readouts measured in each system. The Y-axis represents a log-transformed ratio of the biomarker readouts for the drug-treated sample (n=1) over vehicle controls (n≥6). The grey region around the Y-axis represents the 95% significance envelope generated from historical vehicle controls. Biomarker activities are annotated when two or more consecutive concentrations change in the same direction relative to vehicle controls, are outside of the significance envelope, and have at least one concentration with an effect size >20% (|log 10 ratio|>0.1). Biomarker key activities are described as modulated if these activities increase in some systems, but decrease in others. Cytotoxicity is indicated on the profile plot by a thin black arrow above the X-axis, and antiproliferative effects are indicated by a thick grey arrow. Cytotoxicity and antiproliferative arrows only require one concentration to meet the indicated threshold for profile annotation. As summarized in Table 2 below, the compound was active with 35 annotated readouts. Specifically, the compound impacted inflammation-related activities (decreased Eotaxin 3, VCAM-1, MCP-1, SAA, sTNFα, MIP-1α; increased IL-1α, IL-6; modulated IL-8), immunomodulatory activities (decreased CD40, sIL-1β, sIgG, M-CSF, sIL-17A, sIL-6, sIL-17F, sIL-2), tissue remodeling activities (decreased PAI-1, uPAR, αSMA, Keratin 8/18; increased collagen I, MMP-1), and hemostasis-related activities (increased TF).
BioMAP® panels consist of human primary cell-based systems designed to model different aspects of the human body in an in vitro format. BioMAP® systems are constructed with one or more primary cell types from healthy human donors, with stimuli (such as cytokines or growth factors) added to capture relevant signaling networks that naturally occur in human tissue or pathological conditions. Vascular biology is modeled in both a Th1 (3C system) and a Th2 (4H system) inflammatory environment, as well as in a Th1 inflammatory state specific to arterial smooth muscle cells (CASM3C system). Additional systems recapitulate aspects of the systemic immune response including monocyte-driven Th1 inflammation (LPS system) or T cell stimulation (SAg system), chronic Th1 inflammation driven by macrophage activation (Mphg system) and the T cell-dependent activation of B cells that occurs in germinal centers (BT system). […]

[4] = Inflammation-related activities
[5] = lower three concentrations tested, immunomodulatory
[6] = lower three concentrations tested, inflammation-related
[7] = lower three concentrations tested, tissue remodeling

c1ncc(C2=NCCC2)cc1C1=NCCC1 [Example 1] was tested, and the “antiproliferative effect on B cells” value (B cells) was “antiproliferative”, the “antiproliferative effect on coronary artery smooth muscle cells” value [1] was “antiproliferative” and the “antiproliferative effect on human primary endothelial cells” value [2] was “antiproliferative”. The “antiproliferative effect on T cells” value (T cells) was “antiproliferative”, the “antiproliferative effect on fibroblasts” value (fibroblasts) was “antiproliferative” and the annotated readouts ([3]; Diversity PLUS Panel profile) was 35. For the same compound, the “Decreased Activity: M-CSF” value ([3]; Immunomodulatory activities) was “decreased; also recorded: M-CSF”, the “Decreased Activity: sIL-6” value ([3]; Immunomodulatory activities) was “decreased; also recorded: inhibited; also recorded: sIL-6” and the “Decreased Activity: sIL-10 (Table 2) / sIL-1β” value ([3]; Immunomodulatory activities) was “decreased”. The “Decreased Activity: sIL-17F” value ([3]; Immunomodulatory activities) was “decreased; also recorded: SIL-17F”, the “Decreased Activity: sIgG” value ([3]; Immunomodulatory activities) was “decreased and sigG” and the “Decreased activity: CD40” value ([3]; Immunomodulatory activities) was “decreased and CD40”. The “Decreased activity: sIL-2” value ([3]; Immunomodulatory activities) was “decreased”, the “Decreased activity: sIL-17A” value ([3]; Immunomodulatory activities) was “decreased; also recorded: SIL-17A” and the “Decreased Activity: Eotaxin 3” value [3, 4] was “decreased and Eot3”. For the same compound, the “Decreased Activity: MIP-1α” value [3, 4] was “decreased”, the “Decreased Activity: SAA” value [3, 4] was “decreased and SAA” and the “Decreased Activity: sTNFα” value [3, 4] was “decreased; also recorded: inhibited; also recorded: sTNFα”. For the same compound, the “Decreased activity: MCP-1” value [3, 4] was “decreased; also recorded: MCP-1”, the “Decreased activity: VCAM-1” value [3, 4] was “decreased; also recorded: VCAM-1” and the “Increased Activity: IL-1α” value [3, 4] was “increased and IL1a”. For the same compound, the “Increased Activity: IL-6” value [3, 4] was “increased and IL6”, the “Modulated Activity: IL-8” value [3, 4] was “modulated and IL8” and the “Decreased Activity: Keratin 8/18” value ([3]; Tissue remodeling activities) was “decreased; also recorded: Ker8-18”. The “Decreased Activity: PAI-1” value ([3]; Tissue remodeling activities) was “decreased; also recorded: PAI-1”, the “Decreased Activity: uPAR” value ([3]; Tissue remodeling activities) was “decreased and uPAR” and the “Decreased Activity: αSMA” value ([3]; Tissue remodeling activities) was “decreased and aSMA”. For the same compound, the “Increased Activity: MMP-1” value ([3]; Tissue remodeling activities) was “increased; also recorded: MMP1,”, the “Increased Activity: collagen I” value ([3]; Tissue remodeling activities) was “increased; also recorded: Col-1” and the annotated readouts ([3]; lower three concentrations tested) was 23. The TF ([3]; lower three concentrations tested, hemostasis-related) was “increased”, the sIL-1β [3, 5] was “decreased” and the sIL-2 [3, 5] was “decreased”. The sIL-6 [3, 5] was “decreased”, the sIL-17A [3, 5] was “decreased” and the sIL-17F [3, 5] was “decreased”. The sIgG [3, 5] was “decreased”, the “Eotaxin 3” value [3, 6] was “decreased” and the IL-1α [3, 6] was “increased”. The IL-6 [3, 6] was “increased”, the IL-8 [3, 6] was “increased” and the MCP-1 [3, 6] was “decreased”. For the same compound, the SAA [3, 6] was “decreased”, the VCAM-1 [3, 6] was “decreased” and the sTNFα [3, 6] was “decreased”. The MMP-1 [3, 7] was “increased”, the PAI-1 [3, 7] was “decreased” and the “collagen I” value [3, 7] was “increased”.
